Laboratory results as given in article PMC11594175 (2024).

Tested on: HD3 with inactivated substrate (rA to dA at cleavage site) (DNA, ribozyme, dA in place of rA at the cleavage site of the substrate strand) CATCTCTTAACGGGGCTGTGCGGCTAGGAAGTAATAGTGAG/CTCACTATAGGAAGAGATG
Test: CD titration at 267 nm
Settings: 500 mM Na+ (NaCl), 500 mM K+ (KCl), no Mg2+; 50 mM HEPES pH 7.5, 0.5 mM EDTA, 25 °C; 30 µM DNA; 0-10 mM histidine

**Q.** For `N[C@@H](Cc1cnc[nH]1)C(=O)O`, which “Ka(CD)” value is on record?
**A.** The value was ~ 2.0 × 10^3 M^-1.
